Reference: ChEMBL document CHEMBL1124865, “Synthesis and biological evaluation of a series of parenteral 3'-quaternary ammonium cephalosporins” (J Med Chem, 1990)
≈ marks a conversion by molar mass, not a printed value.

Legend:
Assay type in all cases: functional
Staphylococcus aureus [1] = assay: Antibacterial activity against penicillin G susceptible Staphylococcus aureus; conditions: Staphylococcus aureus; read-out: MIC
Enterobacter cloacae [2] = assay: Antibacterial activity against Enterobacter cloacae EB5; conditions: Enterobacter cloacae; read-out: MIC
Pseudomonas aeruginosa [3] = assay: Antibacterial activity against Pseudomonas aeruginosa PS18; conditions: Pseudomonas aeruginosa; read-out: MIC
Escherichia coli [4] = assay: Antibacterial activity against Escherichia coli EC14; conditions: Escherichia coli; read-out: MIC
Klebsiella pneumoniae [5] = assay: Antibacterial activity against Klebsiella pneumoniae X26; conditions: Klebsiella pneumoniae; read-out: MIC
Pseudomonas aeruginosa [6] = assay: Antibacterial activity against Pseudomonas aeruginosa X528; conditions: Pseudomonas aeruginosa; read-out: MIC
Streptococcus pyogenes = assay: Antibacterial activity against Streptococcus pyogenes; conditions: Streptococcus pyogenes; read-out: MIC
Streptococcus pneumoniae = assay: Antibacterial activity against Streptococcus pneumoniae; conditions: Streptococcus pneumoniae; read-out: MIC
Escherichia coli [7] = assay: Antibacterial activity against Escherichia coli TEM; conditions: Escherichia coli; read-out: MIC
Enterococcus faecium = assay: Antibacterial activity against Enterococcus faecium; conditions: Enterococcus faecium; read-out: MIC
Staphylococcus aureus [8] = assay: Antibacterial activity against penicillin G resistance Staphylococcus aureus; conditions: Staphylococcus aureus; read-out: MIC
Klebsiella pneumoniae [9] = assay: microbe, parasite or virus in culture; conditions: Klebsiella pneumoniae; read-out: MIC
Description: Antibacterial activity against Klebsiella pneumoniae 1082E

Serratia marcescens = assay: Antibacterial activity against Serratia marcescens SE3; conditions: Serratia marcescens; read-out: MIC
Enterobacter cloacae [10] = assay: Antibacterial activity against Enterobacter cloacae 265A; conditions: Enterobacter cloacae; read-out: MIC

Compound | MIC (Staphylococcus aureus [1]) [µg/mL] | MIC (Enterobacter cloacae [2]) [µg/mL] | MIC (Pseudomonas aeruginosa [3]) [µg/mL] | MIC (Escherichia coli [4]) [µg/mL] | MIC (Klebsiella pneumoniae [5]) [µg/mL] | MIC (Pseudomonas aeruginosa [6]) [µg/mL] | MIC (Streptococcus pyogenes) [µg/mL] | MIC (Streptococcus pneumoniae) [µg/mL] | MIC (Escherichia coli [7]) [µg/mL] | MIC (Enterococcus faecium) [µg/mL] | MIC (Staphylococcus aureus [8]) [µg/mL] | MIC (Klebsiella pneumoniae [9]) [µg/mL] | MIC (Serratia marcescens) [µg/mL] | MIC (Enterobacter cloacae [10]) [µg/mL]
CO/N=C(\C(=O)N[C@@H]1C(=O)N2C(C(=O)[O-])=C(C[n+]3csc(CCOC=O)c3C)CS[C@H]12)c1csc(N)n1 | 1 (≈ 1.76 µM) | 0.06 (≈ 0.106 µM) | 16 (≈ 28.2 µM) | 0.03 (≈ 0.0529 µM) | 0.015 (≈ 0.0265 µM) | 8 (≈ 14.1 µM) | 0.015 (≈ 0.0265 µM) | 0.015 (≈ 0.0265 µM) | 0.03 (≈ 0.0529 µM) | 16 (≈ 28.2 µM) | 2 (≈ 3.53 µM) | 4 (≈ 7.06 µM) | 0.06 (≈ 0.106 µM) | 2 (≈ 3.53 µM)
CCC(C)Nc1nc2cc[n+](CC3=C(C(=O)[O-])N4C(=O)[C@@H](NC(=O)/C(=N\OC)c5csc(N)n5)[C@H]4SC3)cc2s1 (some centres not stated) | 0.5 (≈ 0.83 µM) | 0.25 (≈ 0.415 µM) | 128 (≈ 212 µM) | 0.06 (≈ 0.0995 µM) | 0.008 (≈ 0.0133 µM) | 16 (≈ 26.5 µM) | 0.008 (≈ 0.0133 µM) | 0.008 (≈ 0.0133 µM) | 0.015 (≈ 0.0249 µM) | 128 (≈ 212 µM) | 0.5 (≈ 0.83 µM) | 2 (≈ 3.32 µM) | 0.5 (≈ 0.83 µM) | 2 (≈ 3.32 µM)
CO/N=C(\C(=O)N[C@@H]1C(=O)N2C(C(=O)[O-])=C(C[n+]3ccc4nc(C(C)(C)C)sc4c3)CS[C@H]12)c1csc(N)n1 | 1 (≈ 1.7 µM) | 1 (≈ 1.7 µM) | 128 (≈ 218 µM) | – | – | – | 0.015 (≈ 0.0255 µM) | 0.015 (≈ 0.0255 µM) | – | 128 (≈ 218 µM) | 4 (≈ 6.81 µM) | 4 (≈ 6.81 µM) | 2 (≈ 3.4 µM) | 16 (≈ 27.2 µM)
CO/N=C(\C(=O)N[C@@H]1C(=O)N2C(C(=O)[O-])=C(C[n+]3cc(C)c4ccccc4c3)CS[C@H]12)c1csc(N)n1 | 1 (≈ 1.86 µM) | 0.25 (≈ 0.464 µM) | 16 (≈ 29.7 µM) | 0.06 (≈ 0.111 µM) | 0.015 (≈ 0.0278 µM) | 4 (≈ 7.43 µM) | < 0.008 | < 0.008 | 0.03 (≈ 0.0557 µM) | > 128 | 2 (≈ 3.71 µM) | 8 (≈ 14.9 µM) | 0.25 (≈ 0.464 µM) | 2 (≈ 3.71 µM)
CO/N=C(\C(=O)N[C@@H]1C(=O)N2C(C(=O)[O-])=C(C[n+]3cccc4c3CCCC4)CS[C@H]12)c1csc(N)n1 [CEFQUINOME] | 1 (≈ 1.89 µM) | 0.125 (≈ 0.236 µM) | 16 (≈ 30.3 µM) | 0.03 (≈ 0.0568 µM) | 0.03 (≈ 0.0568 µM) | 4 (≈ 7.57 µM) | < 0.008 | 0.015 (≈ 0.0284 µM) | 0.03 (≈ 0.0568 µM) | 128 (≈ 242 µM) | 2 (≈ 3.78 µM) | 4 (≈ 7.57 µM) | 0.125 (≈ 0.236 µM) | 2 (≈ 3.78 µM)
CO/N=C(\C(=O)N[C@@H]1C(=O)N2C(C(=O)[O-])=C(C[n+]3ccc4sc(N)cc4c3)CS[C@H]12)c1csc(N)n1 | 0.5 (≈ 0.916 µM) | 0.06 (≈ 0.11 µM) | 4 (≈ 7.33 µM) | 0.015 (≈ 0.0275 µM) | < 0.008 | 1 (≈ 1.83 µM) | 0.015 (≈ 0.0275 µM) | < 0.008 | 0.03 (≈ 0.055 µM) | > 128 | 4 (≈ 7.33 µM) | 2 (≈ 3.67 µM) | 0.06 (≈ 0.11 µM) | 8 (≈ 14.7 µM)
CO/N=C(\C(=O)N[C@@H]1C(=O)N2C(C(=O)[O-])=C(C[n+]3ccsc3)CS[C@H]12)c1csc(N)n1 | 4 (≈ 8.32 µM) | 0.5 (≈ 1.04 µM) | 16 (≈ 33.3 µM) | 0.125 (≈ 0.26 µM) | 0.125 (≈ 0.26 µM) | 32 (≈ 66.6 µM) | 0.125 (≈ 0.26 µM) | 0.125 (≈ 0.26 µM) | 0.125 (≈ 0.26 µM) | 64 (≈ 133 µM) | 8 (≈ 16.6 µM) | 8 (≈ 16.6 µM) | 0.25 (≈ 0.52 µM) | 32 (≈ 66.6 µM)
CO/N=C(\C(=O)N[C@@H]1C(=O)N2C(C(=O)[O-])=C(C[n+]3ccc4[nH]c(C)nc4c3)CS[C@H]12)c1csc(N)n1 | 2 (≈ 3.78 µM) | – | 8 (≈ 15.1 µM) | 0.008 (≈ 0.0151 µM) | 0.008 (≈ 0.0151 µM) | 2 (≈ 3.78 µM) | 0.008 (≈ 0.0151 µM) | 0.008 (≈ 0.0151 µM) | 0.008 (≈ 0.0151 µM) | 128 (≈ 242 µM) | 8 (≈ 15.1 µM) | 2 (≈ 3.78 µM) | – | 8 (≈ 15.1 µM)
CCc1nc2c[n+](CC3=C(C(=O)[O-])N4C(=O)[C@@H](NC(=O)/C(=N\OC)c5csc(N)n5)[C@H]4SC3)ccc2s1 | 1 (≈ 1.79 µM) | – | 16 (≈ 28.6 µM) | 0.015 (≈ 0.0268 µM) | 0.008 (≈ 0.0143 µM) | 4 (≈ 7.15 µM) | 0.008 (≈ 0.0143 µM) | 0.008 (≈ 0.0143 µM) | 0.015 (≈ 0.0268 µM) | 128 (≈ 229 µM) | 4 (≈ 7.15 µM) | 2 (≈ 3.57 µM) | – | 4 (≈ 7.15 µM)
CO/N=C(\C(=O)N[C@@H]1C(=O)N2C(C(=O)[O-])=C(C[n+]3csc4c3CCCC4)CS[C@H]12)c1csc(N)n1 | 1 (≈ 1.87 µM) | 0.125 (≈ 0.234 µM) | 16 (≈ 29.9 µM) | 0.06 (≈ 0.112 µM) | 0.03 (≈ 0.0561 µM) | 4 (≈ 7.48 µM) | 0.03 (≈ 0.0561 µM) | 0.03 (≈ 0.0561 µM) | 0.03 (≈ 0.0561 µM) | 16 (≈ 29.9 µM) | 2 (≈ 3.74 µM) | 2 (≈ 3.74 µM) | 0.125 (≈ 0.234 µM) | 1 (≈ 1.87 µM)
CO/N=C(\C(=O)N[C@@H]1C(=O)N2C(C(=O)[O-])=C(C[n+]3ccc4oc(C)nc4c3)CS[C@H]12)c1csc(N)n1 | 1 (≈ 1.89 µM) | – | 8 (≈ 15.1 µM) | – | 0.015 (≈ 0.0283 µM) | 4 (≈ 7.55 µM) | 0.015 (≈ 0.0283 µM) | 0.015 (≈ 0.0283 µM) | – | 128 (≈ 242 µM) | 8 (≈ 15.1 µM) | 4 (≈ 7.55 µM) | – | 8 (≈ 15.1 µM)
